For series [1], the target named is T1, (Rattus norvegicus, UniProt P32301).
T1 construct: host or cells: brain tissue: nucleus of the solitary tract
T1 sequence (P32301 22-463): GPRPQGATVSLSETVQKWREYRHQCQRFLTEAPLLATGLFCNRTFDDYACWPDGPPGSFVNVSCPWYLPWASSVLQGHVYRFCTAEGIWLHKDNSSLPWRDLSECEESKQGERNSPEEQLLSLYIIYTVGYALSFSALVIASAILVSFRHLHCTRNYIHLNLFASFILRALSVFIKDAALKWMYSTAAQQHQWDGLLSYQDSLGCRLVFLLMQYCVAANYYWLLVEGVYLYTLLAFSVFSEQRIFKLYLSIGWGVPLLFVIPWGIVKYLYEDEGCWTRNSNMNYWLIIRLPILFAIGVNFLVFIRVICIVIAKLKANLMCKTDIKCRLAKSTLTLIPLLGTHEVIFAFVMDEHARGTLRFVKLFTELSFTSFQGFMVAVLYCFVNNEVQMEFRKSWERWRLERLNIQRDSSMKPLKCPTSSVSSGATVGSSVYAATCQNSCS
Conditions: inhibition of [^125I]GLP-1 binding; cited from earlier work.

For another series, the target named is T2, carboxypeptidase A (Bos taurus, UniProt P00730).
T2 sequence (P00730 111-419): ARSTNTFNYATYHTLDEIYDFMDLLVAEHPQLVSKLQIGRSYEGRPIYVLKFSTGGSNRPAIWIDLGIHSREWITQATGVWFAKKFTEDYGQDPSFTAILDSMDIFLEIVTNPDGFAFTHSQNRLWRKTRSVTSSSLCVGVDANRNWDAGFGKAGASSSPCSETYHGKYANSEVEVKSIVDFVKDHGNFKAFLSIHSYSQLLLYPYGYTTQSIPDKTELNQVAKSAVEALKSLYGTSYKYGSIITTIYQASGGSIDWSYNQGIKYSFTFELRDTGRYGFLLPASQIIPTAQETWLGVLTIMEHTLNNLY
The series can be described thus: In vitro stability in carboxypeptidase A solution. The note with it: pH 7.4. The procedure:
(§1) A SHT200D block heater from Stuart Scientific was used for heating of the peptide/enzyme solutions during the stability experiments. The degradation of the test compounds was studied at 37° C. in 50 mM phosphate buffer solutions of pH 7.4 containing leucine aminopeptidase (25 U/ml) or carboxypeptidase A (1 U/ml) or 100 mM ammoniumbicarbonate buffer of pH 8.0 containing dipeptidyl aminopeptidase IV (0.5 U/ml). Experiments were initiated by addition of an aliquot (100 μl) of a stock solution (1 mg/ml) of the peptide in water to 900 μl preheated enzyme solution in an Eppendorf microvial giving an initial concentration of 0.1 mg/ml (˜1.7·10−5-1.8·10−5 M) of the peptide. The peptide/enzyme solution was kept at 37° C. and at appropriate time intervals samples of 100 μl were withdrawn from the peptide/enzyme solution and mixed thoroughly with 20 μl 25% TFA in acetonitrile in order to stop the enzymatic degradation process. The inactivated samples were transferred to autosampler vials and analysed for content of intact test compound by HPLC as described below.
(§2) Samples from the stability experiments performed as described above were analysed by gradient HPLC analysis using the instrumentation described above and the following experimental conditions.
(§3) In vitro stability studies with the present peptides and peptide conjugates in the presence of selected proteolytic enzymes are applied as a tool for evaluating the protection of said peptides against proteolysis in vivo.
(§4) Water used was of highest quality obtained from a Milli-Q water treatment system (Millipore, Bedford, Mass., U.S.A.). Acetonitrile (ACN) was of super gradient quality obtained from Labscan Ltd. (Dublin, Ireland). […] Leucine aminopeptidase (EC 3.4.11.1), Carboxypeptidase A (EC 3.4.17.1) and Dipeptidyl peptidase (Dipeptidyl aminopeptidase IV, EC 3.4.14.5) were all obtained from Sigma (St. Louis, Mo., U.S.A.). Gradient HPLC analysis was done using a Hewlett Packard HP 1100 HPLC system consisting of a HP 1100 Binary Pump, a HP 1100 Autosampler, A HP 1100 Column Thermostat and a HP 1100 Variable Wavelength Detector. Hewlett Packard Chem-station for LC software (Rev. A.06.01) was used for instrument control and data acquisition. A Vydac 238TP54 (150×4.6 mm I.D.) column packed with 5 μm, C18, 300 Å

For another series, the target named is T3, leucine aminopeptidase (Sus scrofa, UniProt P28839).
T3 sequence (P28839 1-519): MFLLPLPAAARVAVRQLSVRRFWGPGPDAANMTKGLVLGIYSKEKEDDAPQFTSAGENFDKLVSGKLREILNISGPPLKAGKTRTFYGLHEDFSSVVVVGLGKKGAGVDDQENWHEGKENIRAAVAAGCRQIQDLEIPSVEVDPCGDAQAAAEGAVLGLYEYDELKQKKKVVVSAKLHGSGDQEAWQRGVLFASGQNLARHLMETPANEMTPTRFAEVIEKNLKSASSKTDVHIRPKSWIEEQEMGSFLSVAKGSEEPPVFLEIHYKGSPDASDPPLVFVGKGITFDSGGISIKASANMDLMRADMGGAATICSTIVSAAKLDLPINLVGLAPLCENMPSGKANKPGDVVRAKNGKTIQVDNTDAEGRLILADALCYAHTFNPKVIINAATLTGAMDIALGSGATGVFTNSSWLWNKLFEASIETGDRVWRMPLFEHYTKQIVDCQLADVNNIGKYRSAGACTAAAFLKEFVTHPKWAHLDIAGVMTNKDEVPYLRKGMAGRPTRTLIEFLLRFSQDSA
The experiment in a line: In vitro stability in leucine aminopeptidase solution. The note with it: pH 7.4. The procedure:
as §1, §2, §3, §4

In series [2] the target is dipeptidyl aminopeptidase IV (Sus scrofa, UniProt P22411). The experiment in a line: In vitro stability in dipeptidyl aminopeptidase IV solution. Conditions: pH 8. The procedure: as §1, §2, §3, §4
dipeptidyl aminopeptidase IV, sequence (P22411 whole entry): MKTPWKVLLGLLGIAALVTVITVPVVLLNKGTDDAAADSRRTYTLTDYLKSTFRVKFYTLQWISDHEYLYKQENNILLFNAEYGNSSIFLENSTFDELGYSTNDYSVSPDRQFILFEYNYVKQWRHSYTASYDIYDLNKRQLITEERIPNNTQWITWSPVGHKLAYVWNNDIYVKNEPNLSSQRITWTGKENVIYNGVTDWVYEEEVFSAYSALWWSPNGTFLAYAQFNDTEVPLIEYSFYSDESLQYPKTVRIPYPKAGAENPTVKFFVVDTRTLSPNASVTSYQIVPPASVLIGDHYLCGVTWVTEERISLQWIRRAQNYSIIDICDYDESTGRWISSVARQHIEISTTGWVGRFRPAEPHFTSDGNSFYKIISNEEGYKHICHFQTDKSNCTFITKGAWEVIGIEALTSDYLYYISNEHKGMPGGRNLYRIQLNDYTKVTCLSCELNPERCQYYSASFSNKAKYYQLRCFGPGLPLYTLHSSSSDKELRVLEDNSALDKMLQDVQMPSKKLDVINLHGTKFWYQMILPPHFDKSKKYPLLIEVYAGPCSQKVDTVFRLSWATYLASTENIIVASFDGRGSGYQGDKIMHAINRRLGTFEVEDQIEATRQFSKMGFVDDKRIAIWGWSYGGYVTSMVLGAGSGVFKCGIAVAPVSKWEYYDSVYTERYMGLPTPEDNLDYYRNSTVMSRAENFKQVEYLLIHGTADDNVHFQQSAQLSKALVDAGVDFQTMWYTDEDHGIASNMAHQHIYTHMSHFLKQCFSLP

In patent USRE45313E1, “Exendin variant peptides” (priority 1999, dated 2014) one finds Ki and half-life data, which are given here for two molecules.

In the case of [Tyr39]exendin-4, the Ki in series [1] was 9.4 nM.
Regarding `CC[C@H](C)[C@H](NC(=O)[C@H](Cc1ccccc1)NC(=O)[C@H](CCC(=O)O)NC(=O)[C@H](CCCCN)NC(=O)[C@H](C)NC(=O)[C@H](C)NC(=O)[C@H](CCC(N)=O)NC(=O)CNC(=O)[C@H](CCC(=O)O)NC(=O)[C@H](CC(C)C)NC(=O)[C@H](Cc1ccc(O)cc1)NC(=O)[C@H](CO)NC(=O)[C@H](CO)NC(=O)[C@@H](NC(=O)[C@H](CC(=O)O)NC(=O)[C@H](CO)NC(=O)[C@@H](NC(=O)[C@H](Cc1ccccc1)NC(=O)[C@@H](NC(=O)CNC(=O)[C@H](CCC(=O)O)NC(=O)[C@H](C)NC(=O)[C@@H](N)Cc1c[nH]cn1)[C@@H](C)O)[C@@H](C)O)C(C)C)C(=O)N[C@@H](C)C(=O)N[C@@H](Cc1c[nH]c2ccccc12)C(=O)N[C@@H](CC(C)C)C(=O)N[C@H](C(=O)N[C@@H](CCCCN)C(=O)NCC(=O)N[C@@H](CCCNC(=N)N)C(N)=O)C(C)C` [GLP-1, H-hGLP-1(7-36)-NH2, reference compound], the figures for the half-life at 0.1 mg/ml (at carboxypeptidase A; at leucine aminopeptidase; in series [2]) were 48 min, 152 min and 2 min, respectively.
